Source: the supplement of paper PMC10307832

Tests used:
Assay in all cases: relative viability (nuclei count vs DMSO), 5 days (fraction); higher = more cells survive
[1] = compound: CN[C@@H]1C[C@H]2O[C@@](C)([C@@H]1OC)n1c3ccccc3c3c4c(c5c6ccccc6n2c5c31)C(=O)NC4 [Staurosporine] + COc1cccc2cc(-c3nc([C@H]4CC[C@H](C(=O)O)CC4)n4ncnc(N)c34)[nH]c12 [OSI-027] (partner 0.5 µM)
Summary of the method: (§1)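 Lung cancer cell lines were pin-tool dosed in 1536-well plates on the day after seeding, with either a lone drug or a fixed anchor-drug dose plus five library-drug doses (not always all listed) in √10 steps. Nuclei were counted on 4× images after 5 days. Relative viability is the ratio of treated-well to vehicle-well nuclei counts, with each value a median of duplicate plates.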

[2] = compound: CN[C@@H]1C[C@H]2O[C@@](C)([C@@H]1OC)n1c3ccccc3c3c4c(c5c6ccccc6n2c5c31)C(=O)NC4 [Staurosporine] + O=C(c1cc(Cc2n[nH]c(=O)c3ccccc23)ccc1F)N1CCN(C(=O)C2CC2)CC1 [Olaparib] (partner 8 µM)
Summary of the method: as §1

[3] = compound: O=c1[nH]cc(F)c(=O)[nH]1 [5-Fluorouracil] + CS(=O)(=O)N1CCN(Cc2cc3nc(-c4cccc5[nH]ncc45)nc(N4CCOCC4)c3s2)CC1 [Pictilisib] (partner 1 µM)
Summary of the method: as §1

[4] = compound: O=c1[nH]cc(F)c(=O)[nH]1 [5-Fluorouracil] + O=C(c1cc(Cc2n[nH]c(=O)c3ccccc23)ccc1F)N1CCN(C(=O)C2CC2)CC1 [Olaparib] (partner 8 µM)
Summary of the method: as §1

Cell Line | relative viability ([1]; first compound 0.005 µM) | relative viability ([1]; first compound 0.01581 µM) | relative viability ([1]; first compound 0.05 µM) | relative viability ([1]; first compound 0.1581 µM) | relative viability ([1]; first compound 0.5 µM) | relative viability ([2]; first compound 0.005 µM) | relative viability ([2]; first compound 0.01581 µM) | relative viability ([2]; first compound 0.05 µM) | relative viability ([2]; first compound 0.1581 µM) | relative viability ([2]; first compound 0.5 µM) | relative viability ([3]; first compound 0.02 µM) | relative viability ([3]; first compound 0.2 µM) | relative viability ([3]; first compound 0.6325 µM) | relative viability ([3]; first compound 2 µM) | relative viability ([4]; first compound 0.02 µM) | relative viability ([4]; first compound 0.2 µM) | relative viability ([4]; first compound 0.6325 µM) | relative viability ([4]; first compound 2 µM)
NCI-H1355 | 0.332 | 0.15 | 0.192 | 0.157 | 0.143 | 0.751 | 0.289 | 0.253 | 0.185 | 0.173 | 0.482 | 0.493 | 0.361 | 0.33 | 0.716 | 0.485 | 0.253 | 0.225
EKVX | 0.557 | 0.399 | 0.284 | 0.209 | 0.15 | 0.562 | 0.392 | 0.272 | 0.216 | 0.13 |  |  | 0.151 | 0.115 | 0.667 | 0.277 |  | 0.169
NCI-H520 | 0.294 | 0.319 | 0.274 | 0.268 | 0.141 | 0.347 | 0.302 | 0.211 | 0.138 | 0.139 | 0.316 | 0.272 | 0.271 | 0.232 | 0.294 | 0.366 | 0.33 | 0.258
NCI-H1993 | 0.551 | 0.445 | 0.614 | 0.399 | 0.461 | 0.941 | 0.73 | 0.717 | 0.497 | 0.313 | 0.793 | 0.657 | 0.661 | 0.779 | 1.15 | 0.743 | 0.525 | 0.445
HCC-78 | 0.361 | 0.37 | 0.308 | 0.336 | 0.296 | 0.98 | 0.638 | 0.654 | 0.455 | 0.417 | 0.236 | 0.182 | 0.181 |  | 0.755 | 0.599 | 0.331 | 0.28
NCI-H2087 | 0.366 | 0.135 | 0.147 | 0.106 | 0.107 | 0.48 | 0.414 | 0.217 | 0.0849 | 0.0689 | 0.912 | 0.916 | 0.607 | 0.602 | 0.577 | 0.607 | 0.45 | 0.319
H3255 | 0.408 | 0.339 | 0.265 | 0.216 | 0.182 | 0.447 | 0.315 | 0.28 | 0.24 | 0.155 | 0.462 | 0.498 | 0.495 | 0.386 | 0.573 | 0.578 | 0.578 | 0.556
NCI-H2126 | 0.712 | 0.406 | 0.486 | 0.338 | 0.333 | 0.89 | 0.634 | 0.62 | 0.468 | 0.4 | 0.504 | 0.354 | 0.305 | 0.306 | 0.808 | 0.374 | 0.329 | 0.254
EBC-1 |  |  |  |  |  | 0.485 | 0.184 | 0.165 | 0.159 | 0.149 | 0.319 | 0.33 | 0.46 | 0.329 | 0.769 | 0.772 | 0.759 | 0.44
NCI-H1563 | 0.65 | 0.573 | 0.562 | 0.523 | 0.488 |  |  |  |  |  | 0.662 | 0.601 | 0.647 | 0.671 |  |  |  | 
NCI-H1703 |  |  |  |  |  | 0.269 | 0.165 | 0.237 | 0.112 | 0.106 | 0.283 | 0.25 | 0.275 | 0.24 | 0.337 | 0.614 | 0.365 | 0.255
NCI-H2342 | 0.702 | 0.482 | 0.438 | 0.402 | 0.37 | 0.436 | 0.315 | 0.363 | 0.398 | 0.394 |  |  |  |  | 0.419 | 0.529 | 0.442 | 0.39
NCI-H1299 |  |  |  |  |  | 0.493 | 0.263 | 0.251 | 0.117 |  | 0.953 | 0.634 | 0.474 | 0.248 | 1.06 | 1.02 | 0.917 | 0.655
Calu-6 |  |  |  |  |  | 0.483 | 0.294 | 0.201 | 0.106 | 0.092 | 1.08 | 0.948 | 0.836 | 0.485 | 0.535 | 0.557 | 0.519 | 0.347
NCI-H1648 | 0.245 | 0.199 | 0.207 | 0.293 | 0.314 | 0.893 | 0.376 | 0.311 | 0.257 | 0.259 |  |  |  |  | 0.632 | 0.796 | 0.638 | 0.332
NCI-H1623 | 0.517 | 0.542 | 0.547 | 0.441 | 0.304 |  |  |  |  |  |  |  |  |  |  |  |  | 
NCI-H522 | 0.814 |  | 0.606 | 0.497 | 0.538 | 0.669 | 0.685 | 0.53 | 0.471 | 0.429 |  |  |  |  | 0.547 | 0.618 | 0.647 | 0.621
SW 900 | 0.334 | 0.182 | 0.204 | 0.108 | 0.0798 | 0.544 | 0.428 | 0.362 | 0.212 | 0.169 |  |  |  |  | 0.751 | 0.794 | 0.811 | 0.522
IA-LM |  |  |  |  |  | 0.562 | 0.51 | 0.412 | 0.215 | 0.0689 | 0.459 | 0.286 | 0.256 | 0.209 | 1 | 0.576 | 0.285 | 0.193
A549 |  |  |  |  |  | 0.0788 | 0.0424 | 0.126 | 0.034 | 0.0268 | 0.578 | 0.474 | 0.21 | 0.12 | 0.298 | 0.501 | 0.202 | 0.0825
